Reference: patent US3954995A, “Mono-and disubstituted hydroxyguanidines in the treatment of depression” (E. I. Du Pont de Nemours and Company, priority 1974, dated 1976)
Like-named read-outs stand apart in the source and are kept apart here.

Experiments:
[1] = test system: tetrabenazine-induced sedation in mice; experiment: Antitetrabenazine test: prevention of tetrabenazine-induced sedation and depression (exploratory activity and ptosis); format: in vivo, mice (Carworth CF1 S female); settings: Mus musculus, po, 1 h
Description: This mouse test is predictive of human antidepressant response (Everett, G. M., "The Dopa Response Potentiation Test and Its Use in Screening for Antidepressant Drugs", pp. 164-167 in "Antidepressant Drugs", Proceedings of the First International Symposium, S. Garattini and M. N. G. Dukes, eds., 1967).
Groups of 10 Carworth CF1 S female mice, 18-21 g each, were fasted 1.5 hours and were intubated with a hydroxyguanidine as antagonist to tetrabenazine at oral doses of 5, 25 and 125 mg/kg in 0.20 ml of 1% methyl cellulose (Methocel.) Thirty minutes later the mice were challenged with tetrabenazine, 32 mg/kg intraperitoneally (dissolved in 0.20 ml of 0.05M KCl at pH 2.0). One hour after the hydroxyguanidine compound (30 minutes after tetrabenzine) the mice were examined for signs of exploratory activity and ptosis (eye-lid closure). Normal exploratory activity (relief from sedation) was recorded when a mouse lifted by the tail from a group of 10 in a testing box and placed on a stainless steel testing box lid (12.5 inch × 8 inch × 0.33 inch mesh) either turned its head horizontally 30° or moved to the edge of the screen withi 10 seconds after being placed on the screen. Relief from ptosis was recorded when exactly 2 seconds after placing the mouse facing the observer, lid closure was less than 50% in both eyes.

[2] = test system: tetrabenazine-induced sedation in mice; experiment: as above; format: in vivo, mice (Carworth CF1 S female); settings: up to 81 mg/kg
[3] = tested as hydroxyguanidine HCl salt, tetrabenazine 32 mg/kg i.p., read-out: Antitetrabenazine ED 50, Exploratory
[4] = tested as hydroxyguanidine HCl salt, tetrabenazine 32 mg/kg i.p., read-out: Antitetrabenazine ED 50, Ptosis
[5] = tetrabenazine 32 mg/kg i.p. 30 min later, read 1 h after compound, read-out: Antitetrabenazine ED 50, Exploratory
[6] = tetrabenazine 32 mg/kg i.p. 30 min later, read 1 h after compound, read-out: Antitetrabenazine ED 50, Ptosis (dose which blocked ptosis in 50% of the mice)

Row | SMILES | ED50 [1, 3] [mg/kg] | ED50 [1, 4] [mg/kg] | ED50 [1, 5] [mg/kg] | ED50 [1, 6] [mg/kg] | Activity in the antitetrabenazine screen [2]
1 | CN(C(N)=NO)c1ccccc1 [Example 1, 1-phenyl-1-methylhydroxyguanidine] | 9 | 1.1 | > 81 | 1.1 | 
2 | CN(Cc1ccccc1)C(N)=NO [Example 2, 1-benzyl-1-methylhydroxyguanidine] | > 81 | 0.43 | 9 | 0.18 | 
3 | CCN(Cc1ccccc1)C(N)=NO [Example 3, 1-benzyl-1-ethylhydroxyguanidine] |  |  | 9 | 0.39 | 
4 | COc1ccc(CN(C)C(N)=NO)cc1 [Example 4, 1-p-methoxybenzyl-1-methylhydroxyguanidine] |  |  | > 81 | 59 | 
5 | CN(Cc1ccc(F)cc1)C(N)=NO [Example 5, 1-p-fluorobenzyl-1-methylhydroxyguanidine] |  |  | > 81 | 8.1 | 
6 | CN(Cc1ccc(Br)cc1)C(N)=NO [Example 6, 1-p-bromobenzyl-1-methylhydroxyguanidine] |  |  | > 81 | 17.4 | 
7 | Cc1ccc(CN(C)C(N)=NO)cc1 [Example 7, 1-p-methylbenzyl-1-methylhydroxyguanidine] |  |  | > 81 | 23 | 
8 | CN(Cc1ccc([N+](=O)[O-])cc1)C(N)=NO [Example 8, 1-p-nitrobenzyl-1-methylhydroxyguanidine] |  |  | > 81 | 47 | 
9 | CN(Cc1ccc(Cl)c(Cl)c1)C(N)=NO [Example 9, 1-(3,4-dichlorobenzyl)-1-methylhydroxyguanidine] |  |  | > 81 | 4.8 | 
10 | CN(Cc1ccc(Cl)cc1)C(N)=NO [Example 10, 1-p-chlorobenzyl-1-methylhydroxyguanidine] |  |  | > 81 | 10.8 | 
11 | CN(C(N)=NO)c1ccc(Cl)cc1 [Example 11, 1-p-chlorophenyl-1-methylhydroxyguanidine] |  |  | 81 | 0.82 | 
12 | CCN(C(N)=NO)c1ccccc1 [Example 12, 1-phenyl-1-ethylhydroxyguanidine] |  |  | 15.6 | 3 | 
13 | Cc1ccc(N(C)C(N)=NO)cc1 [Example 13, 1-p-tolyl-1-methylhydroxyguanidine] |  |  | 3 | 0.88 | 
14 | COc1ccc(N(C)C(N)=NO)cc1 [Example 14, 1-p-methoxyphenyl-1-methylhydroxyguanidine] |  |  | > 81 | 20.5 | 
15 | CCCN(C(N)=NO)c1ccccc1 [Example 17, 1-phenyl-1-n-propylhydroxyguanidine] |  |  | > 81 | 20 | 
16 | CN(C(N)=NO)C1CCCCC1 [Example 18, 1-cyclohexyl-1-methylhydroxyguanidine] |  |  | > 81 | 9 | 
17 | NC(=NO)NCc1ccccc1 [Example 19, 1-benzylhydroxyguanidine] | > 81 | 12.5 |  |  | 
18 | CN(Cc1cccc(Cl)c1)C(N)=NO [Example 20, 1-m-chlorobenzyl-1-methylhydroxyguanidine] |  |  | > 81 | 0.4 | 
19 | CN(Cc1cccc([N+](=O)[O-])c1)C(N)=NO [Example 21, 1-m-nitrobenzyl-1-methylhydroxyguanidine] |  |  | > 81 | 66 | 
20 | CN(C(N)=NO)c1cccc(Cl)c1 [Example 22, 1-m-chlorophenyl-1-methylhydroxyguanidine] |  |  | > 81 | 0.7 | 
21 | Cc1ccc(N(C)C(N)=NO)cc1C [Example 23, 1-(3,4-xylyl)-1-methylhydroxyguanidine] |  |  | > 81 | 4.9 | 
22 | Cc1cccc(N(C)C(N)=NO)c1 [Example 24, 1-m-tolyl-1-methylhydroxyguanidine] |  |  |  | 0.4 | 
23 | CN(C(N)=NO)C1CCCC1 [Example 25, 1-cyclopentyl-1-methylhydroxyguanidine] | > 81 | 3 |  |  | 
24 | CNC(=NO)Nc1ccccc1 [Example 26, 1-Phenyl-3-methyl-2-hydroxyguanidine] |  |  | > 81 | 12.2 | 
25 | CNC(=NO)NCc1ccccc1 [Example 27, 1-Benzyl-3-methyl-2-hydroxyguanidine] |  |  |  |  | inactive
